Measurements published in US20100130598A1, “METHODS FOR INDUCING PROGRAMMED CELL DEATH” (Novogen Research Pty Ltd., priority 2008, published 2010).
≈ marks a conversion by molar mass, not a printed value.

Experiments:
[1] = tested on: PANC-1 cells; test: Mitochondrial membrane potential by FACS (JC-1), PANC-1; format: cell-based, human; details: PANC-1, dose-dependent, 48 hrs of treatment
Protocol: Cells. Human pancreatic cell lines HPAC, MIAPaCa-2 and PANC-1 were obtained from the ATCC. (Manassas, Va.). The cells were maintained in DMEM media with Gln and high glucose (Mediatech, Manassas, Va.) with 10% fetal bovine serum (FBS, HyClone, Logan, Utah) and pencillin/streptomycin.
FACS Analysis. Apoptosis was measured by FACS analysis using Annexin-V-FITC and propidium iodide (PI) (Biovision, Mountain View, Calif.) as probes (Ahn et al., 2003). Mitochondrial membrane potential was measured by FACS analysis using JC-1 (Biovision) as a probe (Ahn et al., 2003). Cell cycle was analyzed on ethanol-fixed, RNaseA-treated cells staining with PI. In each spectrum, 10,000 gated events were recorded and analyzed with a FACSCalibur (BD Biosciences. San Jose, Calif.). All experiments were done in triplicate, error bars represent one standard deviation. Caspase inhibitor I (zVAD-fmk) was obtained from Calbiochem.

[2] = tested on: EOC tumors; test: Mouse EOC xenograft study; format: in vivo
Protocol: Mouse xenograft studies. The in vivo study as approved by the Yale University Institutional Animal Care & Use Committee. Cells (1×10^6 cells) were resuspended in 200 μ1 total volume of 50% RPMI and 50% BD Matrigel Matrix (BD Biosciences, Bedford, Mass.) and injected subcutaneously into the right flank of NCR nude mice. Intra-peritoneal therapy commenced eight days post-inoculation as follows: Paclitaxel 10 mg/kg q×3d, Carboplatin 40 mg/kg q×7d, and Compound 1 in 20% HPBCD, 100 mg/kg every day. Control groups received 20% HPBCD in PBS. Mice were treated and observed for 3 weeks. Tumor size was determined by caliper measurements and anti-tumor activity was analyzed with respect to maximal tumor inhibition (treated/control, T/C) as described previously (Kamsteeg et al, 2003).

[3] = tested on: EOC cells; test: Cell viability assay (CellTiter 96 AQueous One); format: cell-based, human
From the text: Cell lines and culture conditions. Established human EOC cell lines, A2780 and A2780/CP70 (gifts from Dr. T C Hamilton) (Behrens et al, 1997) were propagated in RPMI plus 10% fetal bovine serum (Gemini Bio-Products, Woodland, Calif.). Primary EOC cell lines were isolated from malignant ovarian ascites or explanted from ovarian tumors and cultured as previously described (Alvero et al, 2006). Purity of the EOC cells was 100% as determined by immuno-staining for cytokeratin 7 antigen. All cell lines were grown at 37° C. in a 5% CO2 atmosphere.
Cell viability assay. Cell viability was determined as previously reported (Alvero et al., 2006). Briefly, cells (5×10^3) were plated in triplicate wells in a […] volume per well of a 96-well microtiter plate (BD Biosciences/Pharmingen, San Diego, Calif.). The cells were grown to 70% confluence and then incubated in reduced-serum phenol-depleted Opti-MEM medium (Invitrogen-GIBCO, Carlsbad, Calif.) for 4 h prior to treatment. Compound 1 (Novogen, Inc., NSW, Australia) was added to the medium from 10 mg/ml stock to give various final concentrations as described in the results section. Following 24 h treatment, cell viability was evaluated using the CellTiter 96® AQueous One Solution Cell Proliferation Assay (Promega Corporation, Madison, Wis.) according to the manufacturer's instructions. Optical densities of the samples were measured at 490 nm using an automatic microplate reader (Model 550, Bio-Rad, Hurcules, Calif.). The values from the treated cells were compared with the values generated from the untreated control and reported as percent viability. Each experiment was done in triplicate.
For experiments using the caspase inhibitor, Z-VAD-FMK (Sigma Aldrich, St. Louis, Mo.), the inhibitor was added to the cultures 30 mins prior to treatment to yield a final concentration of 20 μM. […]

[4] = tested on: Beclin-1 / Bcl2; test: Beclin-1 immunoprecipitation from mitochondrial fraction, probed for Bcl2 and Bak; format: cell-based, human; details: 10 μg/ml, 1 h
Protocol: SDS-PAGE and Western blots. Cell lysates (20 μg protein) were denatured in sample buffer (2.5% SDS, 10% glycerol, 5% β-mercapto-ethanol, 0.15 M Tris (pH=6.8) and 0.01% bromophenol blue) and subjected to 12% SDS-PAGE as previously described (Kamsteeg et al, 2003). The following antibodies and concentrations were used: mouse anti-XIAP (BD, 1:1,000), rabbit anti-MAP LC3 (1:200), rabbit anti-actin (Sigma, 1:10,000), rabbit anti-phosphorylated Akt (Cell Signaling, 1:1,000), rabbit anti-Akt (Cell Signaling, 1:1000), rabbit anti-phosphorylated mTOR (Cell Signaling, 1:1000), rabbit anti-mTOR (Cell Signaling, 1:1000), rabbit anti-cytochrome c (Clontech Laboratories, Inc, Mountainview, Calif., 1:100), rabbit anti-Omi (R&D Systems, Minneapolis, Minn., 1:5000), rabbit anti-Bid (Cell Signaling, 1:1000), mouse anti-Bax (BD Pharmingen, 1:250), rabbit anti-VDAC (Sigma Aldrich, 1:2000), mouse anti-Bcl2 (BD Pharmingen, 1:500), rabbit anti-AIF (Sigma Aldrich, 1:1000), rabbit anti-EndoG (Sigma Aldrich, 1:1000), mouse anti-topoisomerase I (BD Pharmingen, 1:10,000). Proteins were visualized using enhanced chemiluminescence (Pierce, Rockford Ill.).
Immunoprecipitation. […]

[5] = tested on: AIF and EndoG; test: Western blot of nuclear fractions for AIF and EndoG; format: cell-based, human; details: EOC cells, 10 μg/ml
From the text: (§1) Protein preparation and cellular fractionation. After drug treatment, protein was extracted and measured as previously described (Alvero et al, 2006). For separation of the cytoplasmic and mitochondrial fractions, cell pellets were processed using the ApoAlert™ Cell Fractionation Kit (BD Biosciences, San Jose, Calif.) according to the manufacturer's instructions. For separation of the cytoplasmic and nuclear fractions, pellets were processed using NE-PER Nuclear and Cytoplasmic Extraction (Pierce Biotechnology, Inc., Rockford, Ill.).
(§2) SDS-PAGE and Western blots. Cell lysates (20 μg protein) were denatured in sample buffer (2.5% SDS, 10% glycerol, 5% β-mercapto-ethanol, 0.15 M Tris (pH=6.8) and 0.01% bromophenol blue) and subjected to 12% SDS-PAGE as previously described (Kamsteeg et al, 2003). […]

[6] = tested on: ribosomal p70 S6 kinase (p-S6k); test: Western blot of EOC whole cell lysates for p-S6k; format: cell-based, human; details: EOC cells, 10 g/ml (as printed, FIG. 3 legend), 15 mins post-treatment
From the text: as §1, §2

Row | Compound | mitochondrial depolarization [1] | tumor proliferation kinetics, final tumor size and volume ([2]; dose-dependent, compared to carboplatin and paclitaxel) | T/C values (maximal tumor inhibition, treated/control) ([2]; intra-peritoneal, 3 weeks, Compound 1 100 mg/kg every day, Carboplatin 40 mg/kg q×7d, Paclitaxel 10 mg/kg q×3d) | toxic side effects ([2]; mouse, in vivo) | effect of autophagy inhibitor 3-MA on compound-induced cell death ([3]; Compound 1 10 μg/ml, 3 MA (10 μM)) | GI50 ([3]; Homo sapiens, primary EOC cultures, paclitaxel-sensitive and paclitaxel-resistant (R182, R456), 24 h, read-out: GI50 (reduction in percentage of viable cells)) | impact of pan-caspase inhibitor Z-VAD-FMK on compound-induced cell death ([3]; Z-VAD-FMK 20 μM, increasing concentrations of Compound 1, 24 h) | Bak in complex with Beclin-1 [4] | Bcl2 in complex with Beclin-1 ([4]; vs no treatment control) | level of nuclear AIF [5] | level of nuclear EndoG [5] | p-S6k level [6]
1 | COc1ccc(C2c3ccc(O)cc3OCC2c2ccc(O)cc2)cc1 (stereo not drawn) [Compound 10, 3-(4-hydroxyphenyl)-4-(4-methoxyphenyl)chroman-7-ol] | depolarized | – | – | – | – | – | – | – | – | – | – | –
2 | COc1ccc(C2c3ccc(O)c(C)c3OCC2c2ccc(O)cc2)cc1 (stereo not drawn) [Compound 1, 3-(4-hydroxyphenyl)-4-(4-methoxyphenyl)-8-methylchroman-7-ol] | – | significant decrease | 30% | No toxic side effects | not able to inhibit | 5 to 10 µg/mL (≈ 13.8 to 27.6 µM) | no impact | not observed | Higher levels | not | increase | down-regulated
